Data on one compound can be found in paper PMC4132742, “Inhibition of RNA binding to hepatitis C virus RNA-dependent RNA polymerase: a new mechanism for antiviral intervention” (Nucleic Acids Research, 2014).

Like-named read-outs stand apart in the source and are kept apart here.

Assay [1] deals with T1, HCV-NS5BΔ21 RdRp genotype 1b (strain J4) (Hepatitis C virus genotype 1b, UniProt O92972). As to the kind of experiment: biochemical. Conditions: range over three genotypes; read-out: IC50 in the enzyme assay, genotypes 1b, 1a and 2a. On the procedure: (§1) The HCV RdRps (NS5B protein) from reference strains H77 (genotype 1a), J4 (genotype 1b) and JFH1 (genotype 2a), truncated of their 21 C-terminal amino acids to ensure solubility (NS5BΔ21) and carrying a hexahistidine tag (His6-Tag) at their N-terminus, were expressed in Escherichia coli C41(DE3) and purified as previously described ([20]). Briefly, cultures were grown at 37°C for ∼1 h and induced with 1 mM isopropyl β-D-thiogalactoside for 4 h at 37°C. […] After sonication, cell lysates were clarified by centrifugation, and chromatography was performed on a Ni-NTA column (Qiagen, Hilden, Germany). The bound protein was eluted in 1 ml fractions with a buffer containing 50 mM NaH2PO4 (pH 8.0), 500 mM NaCl and 250 mM imidazole. NS5BΔ21-enriched fractions were selected using a Bradford colorimetric assay, and HCV-NS5BΔ21 purity was determined by Coomassie-stained sodium dodecyl sulfate-polyacrylamide electrophoresis gel (SDS-PAGE) analysis. Purified NS5BΔ21 fractions were pooled and dialyzed against a buffer containing 5 mM Tris (pH 7.5), 0.2 M sodium acetate, 1 mM DTT, 1 mM ethylenediaminetetraacetic acid (EDTA) and 10% glycerol. […]

The target in assay [2] is T2, RNA binding to HCV-NS5BΔ21 (Hepatitis C virus genotype 1b, UniProt O92972).
T2 construct: made in house; host or cells: Escherichia coli C41(DE3)
As to the kind of experiment: HCV-NS5BΔ21-RNA ELISA assay. Conditions: dose-dependent. In general terms: In an ELISA, binding on a coated surface is turned into a signal by an enzyme label.
Description: Ninety-six-well plates were coated with streptavidin (100 μg/ml in 0.1 M NaHCO3, 50 μl/well) overnight at 4°C. The plates were washed six times with 200 μl phosphate-buffered saline (PBS)-T and blocked with 50 μl of 3% BSA and 0.1 μg/ml of streptavidin in PBS overnight at 4°C, then four times with 0.1% PBS-Tween. A mix of 5 pmol of biotinylated RNA and 0.5 μg of HCV-NS5BΔ21 previously incubated for 30 min at 37°C in a binding buffer containing 50 mM Tris (pH 7.5), 150 mM NaCl, 0.02 mg/ml yeast tRNA and 0.2 mg/ml BSA was added (50 μl/well) and incubated 1 h at room temperature. The plates were washed six times with 200 μl/well PBS-T, and the 6His mAB/HRP conjugate (Clontech, Mountain View, CA, USA) in PBS 1:1000 (50 μl/well) was added and incubated for 1 h at room temperature. The plates were washed six times with 200 μl/well PBS-T. A mix of enhanced chemiluminescence reagent was added (50 μl/well) and luminescence was measured.

Assay [3] concerns the target T3, HCV-NS5BΔ21 RdRp genotype 1a (strain H77) (Hepatitis C virus genotype 1a, UniProt P27958).
T3 construct: His6 (N); made in house; host or cells: Escherichia coli C41(DE3)
As to the kind of experiment: cell-free HCV-NS5BΔ21 polymerase assay, genotype 1a (H77). It is filed as biochemical. Here is the method: as §1

In assay [4] the test system is HCV NS5B protein expression. As to the kind of experiment: Western blot analysis of NS5B in Con1 replicon cells. It is filed as cell-based, hepatitis C virus. Conditions: Huh7.5 cells, 72 h, increasing concentrations. Here is the method:
HCV Con1 replicon-harboring cells were seeded at a density of 90 000 cells per well in 6-well plates. […] NS5B and actin were detected using specific monoclonal antibodies (Enzo Life Sciences, Firmingdale, NY, USA and Sigma Aldrich, Saint Louis, MO, USA, respectively).
(In general: Immunoblotting shows a protein as a band on a membrane.)

The target in assay [5] is T2, RNA binding to HCV-NS5BΔ21. As to the kind of experiment: RNA binding assay (EMSA). Particulars: fixed concentration of HCV-NS5BΔ21, increasing compound. Here is the method: RNA binding was studied by means of the electrophoretic mobility shift assay (EMSA) with minor modifications. Briefly, 0.5 μg/ml of HCV-NS5BΔ21 was incubated with 1 μg of a 500 bp RNA at 37°C for 30 min in 20 μl of a binding buffer containing 10 mM Tris pH 7.5, 1 mM EDTA, 100 mM KCl, 0.1 mM DTT, 5% vol/vol glycerol, 10 μg/ml bovine serum albumin (BSA), in the presence of increasing concentrations of the tested compound. Samples were then loaded onto a non-denaturing agarose gel. The gel was incubated 20 min in SYBR green EMSA Nucleic Acid Gel Stain (Invitrogen, Carlsbad, CA, USA). After washing, the gel was visualized under ultraviolet transillumination.
On the technique in general: A gel shift assay detects complexes by their altered migration in electrophoresis.

Assay [6] deals with T1, HCV-NS5BΔ21 RdRp genotype 1b (strain J4). As to the kind of experiment: biochemical. The arrangement: His6 (N); made in house; host or cells: Escherichia coli C41(DE3). Here is the method:
The HCV RdRps (NS5B protein) from reference strains H77 (genotype 1a), J4 (genotype 1b) and JFH1 (genotype 2a), truncated of their 21 C-terminal amino acids to ensure solubility (NS5BΔ21) and carrying a hexahistidine tag (His6-Tag) at their N-terminus, were expressed in Escherichia coli C41(DE3) and purified as previously described ([20]). Briefly, cultures were grown at 37°C for ∼1 h and induced with 1 mM isopropyl β-D-thiogalactoside for 4 h at 37°C. […] After sonication, cell lysates were clarified by centrifugation, and chromatography was performed on a Ni-NTA column (Qiagen, Hilden, Germany). The bound protein was eluted in 1 ml fractions with a buffer containing 50 mM NaH2PO4 (pH 8.0), 500 mM NaCl and 250 mM imidazole. NS5BΔ21-enriched fractions were selected using a Bradford colorimetric assay, and HCV-NS5BΔ21 purity was determined by Coomassie-stained sodium dodecyl sulfate-polyacrylamide electrophoresis gel (SDS-PAGE) analysis. Purified NS5BΔ21 fractions were pooled and dialyzed against a buffer containing 5 mM Tris (pH 7.5), 0.2 M sodium acetate, 1 mM DTT, 1 mM ethylenediaminetetraacetic acid (EDTA) and 10% glycerol.
(§2) The cell-free HCV-NS5BΔ21 polymerase assay is based on the real-time measurement of the amount of double-stranded RNA synthesized in the presence of HCV-NS5BΔ21, a homopolymeric RNA template (poly U or poly C, GE Healthcare, Chalfont St. Giles, UK) and the corresponding nucleotide, by means of an intercalating agent (SYBR® Green, Applied Biosystems, Carlsbad, CA, USA), as previously described ([20]). For screening, HCV-NS5BΔ21 polymerase activity was quantified by the slope of fluorescence increase in the presence of 20 μM of the tested flavonoid compounds and compared with the control reaction containing no inhibitor. […] The reported values are the average of three independent measurements performed in duplicate. For kinetics analysis, initial reaction velocities were measured at different nucleotide (adenosine triphosphate (ATP) or GTP) and studied compound concentrations, without pre-incubation and in the presence of 50 μg/ml of the corresponding homopolymeric RNA template (Poly U and Poly C, respectively). The concentration of NS5BΔ21 (J4 strain, genotype 1b) in the reaction was 0.1 mg/ml. Kinetics data were graphically represented as double reciprocal plots. Data points were fitted by linear regression to identify the inhibition mode of the compound.

Assay [7] addresses T4, HCV-NS5BΔ21 RdRp genotype 2a (strain JFH1) (Hepatitis C virus genotype 2a, UniProt Q99IB8).
T4 construct: His6 (N); made in house; host or cells: Escherichia coli C41(DE3)
As to the kind of experiment: cell-free HCV-NS5BΔ21 polymerase assay, genotype 2a (JFH1). It is filed as biochemical. On the procedure:
as §1

Assay [8] deals with RNA duplex. As to the kind of experiment: RNA duplex fluorescence assay. Conditions: 20 μM compound.
Assay [9] has as its target T5, HCV-NS5BΔ21 RdRp mutants (Hepatitis C virus genotype 1b, UniProt O92972, V2535I).
T5 construct: His6 (N); made in house; host or cells: Escherichia coli C41(DE3)
It is filed as biochemical. Conditions: enzyme assay and genotype 1b subgenomic replicon, data not shown.
Description: as §2

Assay [10] addresses T6, HCV-NS5BΔ21 RdRp mutants (Hepatitis C virus genotype 1b, UniProt O92972, F2581Y).
T6 construct: His6 (N); made in house; host or cells: Escherichia coli C41(DE3)
It is filed as biochemical. Particulars: F162Y variant (33% of wild-type activity at baseline).
Description: as §2

In assay [11] the test system is HCV-NS5BΔ21 RdRp mutants. It is filed as biochemical, hepatitis C virus. Conditions: S96A and G557A mutants.
Description: as §2

The test system of assay [12] is HCV genotype 1b subgenomic replicon Con1. As to the kind of experiment: microbe, parasite or virus in culture. Conditions: Hepatitis C virus, Huh7.5, 72 h, read-out: EC50 replicon replication. Here is the method: Each data point represents the average of at least three replicates in cell culture. HCV RNA level reductions after treatment were assessed by comparing the level of HCV RNA in compound-treated cells to that of control cells treated with 1% DMSO.

Assay [13] concerns genotype 2a infectious J6/JFH1 strain. As to the kind of experiment: J6/JFH1 infection in cell culture (HCVcc, Huh7.5 cells). It is filed as cell-based. Conditions: Hepatitis C virus, Huh7.5, 72 h, read-out: EC50 J6/JFH1 replication. Here is the method:
The plasmid pFL-R-luc2A-ubi-J6/JFH1, containing the full-length cDNA of the chimeric J6/JFH1 HCV genotype 2a clone and the Renilla luciferase gene, was used to generate infectious HCV particles (HCVcc) in Huh7.5 cell culture. Huh7.5 cells were seeded in 48-well plates at a density of 10 000 cells/well, infected 24 h later with 100 μl of HCVcc and incubated overnight at 37°C. After incubation, the supernatants were removed and J6/JFH1-infected cells were washed with fresh medium. Increasing concentrations of the tested compounds were added in a medium containing 1% DMSO, and the cells were incubated 72 h at 37°C. Then, the cells were washed once with Dulbecco's PBS (Invitrogen), and 75 μl Renilla lysis buffer (Promega) was added to each well. Note that 20 μl of lysate was mixed with the luciferase assay substrate, as specified by the manufacturer. Luciferase activity was measured for 10 s in a Berthold luminometer.

T1 sequence (O92972 2420-2989, stated change not applied): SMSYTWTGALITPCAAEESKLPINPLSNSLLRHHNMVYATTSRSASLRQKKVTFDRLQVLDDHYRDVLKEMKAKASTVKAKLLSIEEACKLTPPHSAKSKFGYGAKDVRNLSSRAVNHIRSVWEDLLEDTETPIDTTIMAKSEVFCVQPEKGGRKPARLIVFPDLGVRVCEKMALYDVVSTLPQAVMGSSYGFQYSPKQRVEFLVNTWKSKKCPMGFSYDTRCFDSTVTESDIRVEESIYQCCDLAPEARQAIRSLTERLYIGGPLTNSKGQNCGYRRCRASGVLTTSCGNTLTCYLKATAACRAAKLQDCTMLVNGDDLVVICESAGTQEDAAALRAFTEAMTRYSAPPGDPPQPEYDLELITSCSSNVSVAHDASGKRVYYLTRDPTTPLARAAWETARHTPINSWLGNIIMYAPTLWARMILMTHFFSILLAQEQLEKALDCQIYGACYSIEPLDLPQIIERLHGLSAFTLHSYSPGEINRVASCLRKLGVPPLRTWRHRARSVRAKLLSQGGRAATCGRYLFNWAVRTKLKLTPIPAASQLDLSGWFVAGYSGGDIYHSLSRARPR
T2 sequence (O92972 2420-2989, stated change not applied): as above
T3 sequence (P27958 2421-2990, stated change not applied): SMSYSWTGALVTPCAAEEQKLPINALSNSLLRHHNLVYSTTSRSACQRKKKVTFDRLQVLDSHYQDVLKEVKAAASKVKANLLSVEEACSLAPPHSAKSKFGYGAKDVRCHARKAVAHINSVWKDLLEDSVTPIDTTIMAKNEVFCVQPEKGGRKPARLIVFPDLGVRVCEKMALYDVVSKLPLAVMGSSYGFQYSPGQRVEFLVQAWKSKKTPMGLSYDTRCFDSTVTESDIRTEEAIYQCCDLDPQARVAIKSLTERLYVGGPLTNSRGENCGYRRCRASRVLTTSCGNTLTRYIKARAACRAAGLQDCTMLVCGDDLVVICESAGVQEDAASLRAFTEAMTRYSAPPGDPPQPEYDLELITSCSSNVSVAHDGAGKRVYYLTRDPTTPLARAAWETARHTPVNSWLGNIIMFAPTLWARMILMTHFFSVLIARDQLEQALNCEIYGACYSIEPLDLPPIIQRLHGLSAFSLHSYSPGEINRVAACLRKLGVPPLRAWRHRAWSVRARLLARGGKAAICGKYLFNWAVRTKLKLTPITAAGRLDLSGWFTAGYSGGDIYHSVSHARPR
T5 sequence (O92972 2420-2989 V2535I): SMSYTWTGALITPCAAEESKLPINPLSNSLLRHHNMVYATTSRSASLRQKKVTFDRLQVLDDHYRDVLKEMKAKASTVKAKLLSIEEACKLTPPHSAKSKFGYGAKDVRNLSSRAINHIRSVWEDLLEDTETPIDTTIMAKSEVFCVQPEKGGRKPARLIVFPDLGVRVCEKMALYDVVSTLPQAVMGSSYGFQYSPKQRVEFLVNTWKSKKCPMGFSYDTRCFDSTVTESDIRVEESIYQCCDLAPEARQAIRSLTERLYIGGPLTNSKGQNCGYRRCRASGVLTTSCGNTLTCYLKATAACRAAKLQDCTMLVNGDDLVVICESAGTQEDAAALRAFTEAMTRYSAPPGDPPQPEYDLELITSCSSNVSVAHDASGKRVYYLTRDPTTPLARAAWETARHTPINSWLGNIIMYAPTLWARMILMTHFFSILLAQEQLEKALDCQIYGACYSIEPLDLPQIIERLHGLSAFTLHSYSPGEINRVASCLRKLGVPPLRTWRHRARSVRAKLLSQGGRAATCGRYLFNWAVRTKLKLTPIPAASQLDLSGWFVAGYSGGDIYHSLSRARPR
T6 sequence (O92972 2420-2989 F2581Y): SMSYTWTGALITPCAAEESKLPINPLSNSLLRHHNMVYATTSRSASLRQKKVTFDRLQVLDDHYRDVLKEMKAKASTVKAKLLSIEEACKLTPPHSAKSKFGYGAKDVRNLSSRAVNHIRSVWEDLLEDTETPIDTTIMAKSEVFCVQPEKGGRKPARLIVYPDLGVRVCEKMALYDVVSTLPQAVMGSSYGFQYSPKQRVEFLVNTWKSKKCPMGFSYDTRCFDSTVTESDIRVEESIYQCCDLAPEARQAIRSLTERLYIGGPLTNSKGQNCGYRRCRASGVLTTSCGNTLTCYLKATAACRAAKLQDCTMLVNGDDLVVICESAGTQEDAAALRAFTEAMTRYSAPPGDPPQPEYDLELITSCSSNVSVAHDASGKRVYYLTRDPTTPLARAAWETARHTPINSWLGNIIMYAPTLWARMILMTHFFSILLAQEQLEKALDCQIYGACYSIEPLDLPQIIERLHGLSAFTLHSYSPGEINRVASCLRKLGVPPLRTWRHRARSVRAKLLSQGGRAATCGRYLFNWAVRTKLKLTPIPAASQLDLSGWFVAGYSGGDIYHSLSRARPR

For the compound `O=c1c(O)c(-c2ccc(O)c(O)c2)oc2cc(O)c(O)c(O)c12` [Quercetagetin], the half-inhibitory concentration (IC50) (usually the concentration that inhibits the measured activity by half) in assay [1] was 2.8 to 6.1 µM; in [3], 2.8 ± 0.4 µM; in assay [6] (genotype 1b (strain J4), read-out: IC50 HCV-NS5BΔ21 polymerase activity) it was 4.3 ± 0.7 µM; in [7] it was 6.1 ± 1.6 µM. Further, the “inhibition of RNA binding, EC50” value in [2] is listed as “of the same order as that in the enzyme assay”. Besides, the NS5B protein expression entry in [4] is on record as “inhibited NS5B protein expression in a dose-dependent manner”. Moreover, the “amount of free RNA” value in assay [5] is recorded as “increased in a quercetagetin concentration-dependent manner”. Moreover, in [6] (20 μM compound), the inhibition (in general, the change of the read-out against control, counted positive when it falls) at 20 µM amounted to 85.6%. The “Slope of fluorescence increase” value in assay [6] (20 μM compound, no treatment control slope 62.0) was determined as 8.9. Moreover, in [6] (increasing ATP or GTP with poly-U or poly-C), the “mode of inhibition (double-reciprocal plots)” value is “non-competitive”. The RNA duplex formation entry in [8] is given as “not inhibited”. Besides, in [9], the “susceptibility of V116I variant” value is “did not reduce”. In addition, the “reduction of catalytic activity by the compound” value in assay [10] is 3 fold. Besides, the change of susceptibility entry in assay [11] was “No change”. The results for the EC50 in assay [12] and in [13] were 5.4 ± 3.3 µM and 40.2 ± 17.7 µM, respectively.
